Key:
Type in all cases: functional, Cricetulus griseus
Conditions in all cases: Epithelial cell
Cricetinae gen. sp. [1] = experiment: In vitro inhibitory activity tested for reverse keratinization of epithelial cells in hamster trachael organ assay at 10E-9 M concentration; (Activity culture/total culture 1/6)
Cricetinae gen. sp. [2] = experiment: In vitro inhibitory activity tested for reverse keratinization of epithelial cells in hamster trachael organ assay at 10E-9 M concentration; (Activity culture/total culture 2/7)
Cricetinae gen. sp. [3] = experiment: In vitro inhibitory activity tested for reverse keratinization of epithelial cells in hamster trachael organ assay at 10E-9 M concentration; (Activity culture/total culture 1/7)
Cricetinae gen. sp. [4] = experiment: In vitro inhibitory activity tested for reverse keratinization of epithelial cells in hamster trachael organ assay at 10E-9 M concentration; (Activity culture/total culture 419/474)

Molecule `CC1=C(/C=C/C(C)=C/C=C/C(C)=C/C(=O)Oc2ccc(O)c(C(C)(C)C)c2)C(C)(C)CCC1` has an inhibition at 0.001 µM (Cricetinae gen. sp. [1]) of 16.7%.
With `CCOc1ccc2c(c1)C(C)=CC(C)(C)N2C(=O)/C=C(C)/C=C/C=C(C)/C=C/C1=C(C)CCCC1(C)C` the inhibition at 0.001 µM (Cricetinae gen. sp. [2]) was 28.6%.
`CC1=C(/C=C/C(C)=C/C=C/C(C)=C/C(=O)Oc2c(C)c(C)c3c(c2C)CC[C@@](C)(CCC[C@H](C)CCC[C@H](C)CCCC(C)C)O3)C(C)(C)CCC1` was tested, and the inhibition at 0.001 µM (Cricetinae gen. sp. [1]) was 16.7%.
In the case of `CC1=C(/C=C/C(C)=C/C=C/C(C)=C/C(=O)Oc2ccc(O)cc2C(C)(C)C)C(C)(C)CCC1`, the inhibition at 0.001 µM (Cricetinae gen. sp. [3]) is reported as 14.3%.
With `CC1=C(/C=C/C(C)=C/C=C/C(C)=C/C(=O)O)C(C)(C)CCC1` [TRETINOIN] the inhibition at 0.001 µM (Cricetinae gen. sp. [4]) was 88.4%.
